# “Also recorded” adds a separate entry of the source.
# Tests used:
# [1] = target: Recombinant full-length Sirt1 (human) (UniProt Q96EB6); assay: cross-linking
# recombinant Sirt1 = assay: inhibition/competition of p53 ABP labeling of recombinant Sirt1; assay type: binding, human
# Sirt1 = settings: ref [17]; cited from earlier work
# Sirt2 = settings: cited from earlier work
# [2] = system: Sirt1 (overexpressed) in HEK293T lysates; assay: p53 ABP labeling of Sirt1 in HEK293T lysates overexpressing Sirt1; assay type: binding; settings: 500 μM inhibitor; 5 μM p53 ABP, 50 μg lysate, 500 μM NAD^+
# Chain of UniProt Q96EB6 (Q96EB6 whole entry): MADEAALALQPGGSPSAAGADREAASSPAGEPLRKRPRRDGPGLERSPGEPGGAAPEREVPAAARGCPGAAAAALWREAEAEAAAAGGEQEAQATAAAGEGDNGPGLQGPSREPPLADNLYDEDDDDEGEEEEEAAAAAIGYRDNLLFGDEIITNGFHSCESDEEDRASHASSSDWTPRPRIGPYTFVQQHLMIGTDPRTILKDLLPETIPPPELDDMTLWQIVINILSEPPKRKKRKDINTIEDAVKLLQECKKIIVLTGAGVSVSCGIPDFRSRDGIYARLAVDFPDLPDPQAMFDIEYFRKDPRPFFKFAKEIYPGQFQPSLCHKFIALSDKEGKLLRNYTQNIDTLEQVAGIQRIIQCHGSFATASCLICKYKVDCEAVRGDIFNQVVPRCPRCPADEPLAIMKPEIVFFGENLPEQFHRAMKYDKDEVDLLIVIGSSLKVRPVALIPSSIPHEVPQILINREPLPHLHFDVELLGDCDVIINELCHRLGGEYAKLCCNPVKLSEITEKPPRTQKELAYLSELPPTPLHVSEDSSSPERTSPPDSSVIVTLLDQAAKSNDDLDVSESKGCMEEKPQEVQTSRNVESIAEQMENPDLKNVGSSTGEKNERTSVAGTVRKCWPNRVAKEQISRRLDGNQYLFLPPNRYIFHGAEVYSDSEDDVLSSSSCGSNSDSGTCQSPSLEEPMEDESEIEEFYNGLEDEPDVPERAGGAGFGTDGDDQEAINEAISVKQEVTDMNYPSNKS
compound,measurement,setting,value
"8-mer thioacetyl-lysine p53 peptide, (diazirine)-RHKK(thioacetyl)LMF-(propargylglycine)-NH2",fold increase of labelling with NAD+ over without NAD+,[1],4 fold
"N[C@@H](CCC(=O)N[C@@H](CSN=O)C(=O)NCC(=O)O)C(=O)O [GSNO, S-nitrosoglutathione]","effect on p53 ABP labeling of recombinant Sirt1, GSNO pretreatment","recombinant Sirt1; 100 μM GSNO, presence and absence of 500 μM NAD^+",A dramatic loss of Sirt1 labeling
same,Sirt1 deacetylase activity upon S-nitrosation,Sirt1,complete loss of deacetylase activity
Cc1cc(C)nc(SCC(=O)Nc2ncc(Cc3cccc4ccccc34)s2)n1 [SirReal2],Sirt2 selectivity of SirReal2,Sirt2; ref [48],Sirt2-selective
same,change of p53 ABP labeling of Sirt1,[2],no reduction in activity-based labeling of Sirt1; also recorded: a slight increase in activity-based labeling of Sirt1
CCCCCCCCCCCCCC(=S)NCCCCC(NC(=O)OCc1ccccc1)C(=O)Nc1ccccc1 (centres unmarked) [TM],Sirt2 selectivity of TM,Sirt2; ref [22],Sirt2-selective
same,change of p53 ABP labeling of Sirt1,[2],no reduction in activity-based labeling of Sirt1
H2N-RHKK(trifluoroacetyl)LMF-NH2 [p53tfa],concentration needed to compete with p53 ABP labeling versus Kd,"recombinant Sirt1; 0.2–500 μM, competitor reversible, p53 ABP labeling covalent and irreversible",exceeds the Kd values

# Reference: paper PMC7686039 (Bioorganic chemistry, 2020)
